Tests used:
[1] = test system: T47D (PI3Kα H1047R mutant) cells; test: CellTiter-Glo 2.0 luminescent cell viability assay, 72 hours, T47D cells; assay type: cell-based; details: Homo sapiens, T47D, 72 h, T47D (PI3Kα H1047R mutant) cells, CellTiter-Glo, approximately 72 hours; read-out: T47D (H1047R mutant) Viability IC50
Experimental: This Example illustrates that exemplary compounds of the present invention decrease the viability of cells.
(§1) The ability of a compound of Formula (I) to decrease the viability of cells was measured using CellTiter-Glo 2.0 (CTG) Luminescent Cell Viability Assay (#G9241) obtained from Promega (Madison, WI).
To prepare assay plates for viability assays, cells were trypsinized, resuspended in fresh media, and viable cells were counted utilizing trypan blue exclusion. T47D, SKBR3, or MKN1 cells were seeded at 1000 cells in 30 μl per well in a solid white flat bottom 384 cell culture plate (Perkin Elmer #6007680) and incubated at 37° C. overnight.
(§2) Assay day 1, cells were dosed using an Echo Liquid Handler (Beckman Coulter) with compounds at a 10 um starting concentration and serially diluted (1:4) for a total of 10 concentrations. Cells were incubated for approximately 72 hours with the compounds (solubilized in DMSO) at 37° C. After 72 hours of treatment, cell plates were equilibrated to room temperature before adding 15 μl of CTG to each well, plates were then covered in aluminum foil to protect from light, incubated at room temperature for 30 minutes on a microtiter plate shaker, and luminescence readings were collected using a CLARIOstar microplate reader (BMG Labtech, Germany). Percent of vehicle control values were plotted as log (inhibitor) vs. response-Variable slope (four parameters) for curve fitting and IC50 values were determined using XLfit.

[2] = test system: SKBR3 (PI3Kα wild type) cells; test: CellTiter-Glo 2.0 luminescent cell viability assay, 72 hours, SKBR3 cells; assay type: cell-based; details: Homo sapiens, SK-BR-3, 72 h, SKBR3 (PI3Kα wild type) cells, CellTiter-Glo, approximately 72 hours; read-out: SKBR3 (WT) Viability IC50
Experimental: as §1
To prepare assay plates for viability assays, cells were trypsinized, resuspended in fresh media, and viable cells were counted utilizing trypan blue exclusion.
as §2

| Structure (SMILES) | IC50 [1] | IC50 [2] |
| --- | --- | --- |
| Cc1cc([C@@H](C)Nc2ccccc2C(=O)O)c2nc(N3CCN(c4ccccc4)CC3C)c(C)c(=O)n2c1 (stereo partly drawn) [Example 11-268, 2-(((1R)-1-(3,7-dimethyl-2-(2-methyl-4-phenylpiperazin-1-yl)-4-oxo-4H-pyrido[1,2-a]pyrimidin-9-yl)ethyl)amino)benzoic acid] | 362 nM | > 10000 nM |
| Cc1cc([C@H](C)Nc2ccc(F)nc2C(=O)O)c2nc(N3CCC(F)(F)CC3)c(C#N)c(=O)n2c1 [Example 11-43, (S)-3-((1-(3-cyano-2-(4,4-difluoropiperidin-1-yl)-7-methyl-4-oxo-4H-pyrido[1,2-a]pyrimidin-9-yl)ethyl)amino)-6-fluoropicolinic acid] | 372 nM | > 10000 nM |
| Cc1cc([C@@H](C)Nc2ccccc2C(=O)O)c2nc(N3CCN(C4COC4)CC3)c(C#N)c(=O)n2c1 [Example 11-152, (R)-2-((1-(3-cyano-7-methyl-2-(4-(oxetan-3-yl)piperazin-1-yl)-4-oxo-4H-pyrido[1,2-a]pyrimidin-9-yl)ethyl)amino)benzoic acid] | 4340 nM | > 10000 nM |
| Cc1cc([C@@H](C)Nc2ccccc2C(=O)O)c2nc(N3CCN(c4ccc(C#N)cc4)C(C)C3)c(C#N)c(=O)n2c1 (stereo partly drawn) [Example 11-271, 2-(((1R)-1-(3-cyano-2-(4-(4-cyanophenyl)-3-methylpiperazin-1-yl)-7-methyl-4-oxo-4H-pyrido[1,2-a]pyrimidin-9-yl)ethyl)amino)benzoic acid] | 118 nM | 7100 nM |
| Cc1cc([C@@H](C)Nc2ccccc2C(=O)O)c2nc(N3CCC(C)(C#N)CC3)c(C)c(=O)n2c1 [Example 11-69, (R)-2-((1-(2-(4-cyano-4-methylpiperidin-1-yl)-3,7-dimethyl-4-oxo-4H-pyrido[1,2-a]pyrimidin-9-yl)ethyl)amino)benzoic acid] | 168 nM | > 10000 nM |
| Cc1cc([C@@H](C)Nc2ccccc2C(=O)O)c2nc(N3CCN(c4ccc(C(F)(F)F)cc4C#N)C[C@@H]3C)c(C#N)c(=O)n2c1 [Example 11-77, 2-(((R)-1-(3-cyano-2-((S)-4-(2-cyano-4-(trifluoromethyl)phenyl)-2-methylpiperazin-1-yl)-7-methyl-4-oxo-4H-pyrido[1,2-a]pyrimidin-9-yl)ethyl)amino)benzoic acid] | 552 nM | > 10000 nM |
| Cc1cc([C@@H](C)Nc2ccccc2C(=O)O)c2nc(N3CC(F)(F)C[C@@H]3C)c(C)c(=O)n2c1 [Example 11-126, 2-(((R)-1-(2-((S)-4,4-difluoro-2-methylpyrrolidin-1-yl)-3,7-dimethyl-4-oxo-4H-pyrido[1,2-a]pyrimidin-9-yl)ethyl)amino)benzoic acid] | 347 nM | > 10000 nM |
| Cc1cc([C@@H](C)Nc2ccccc2C(=O)O)c2nc(N3CC4CC(C3)N4c3ccc(C#N)cc3)c(C)c(=O)n2c1 [Example 11-135, 2-(((1R)-1-(2-(6-(4-cyanophenyl)-3,6-diazabicyclo[3.1.1]heptan-3-yl)-3,7-dimethyl-4-oxo-4H-pyrido[1,2-a]pyrimidin-9-yl)ethyl)amino)benzoic acid] | 169 nM | > 10000 nM |
| Cc1cc([C@@H](C)Nc2ccccc2C(=O)O)c2nc(N3C[C@H]4C[C@@H]3CN4c3ccc(C#N)cc3)c(C)c(=O)n2c1 [Example 11-176, 2-(((R)-1-(2-((1R,4R)-5-(4-cyanophenyl)-2,5-diazabicyclo[2.2.1]heptan-2-yl)-3,7-dimethyl-4-oxo-4H-pyrido[1,2-a]pyrimidin-9-yl)ethyl)amino)benzoic acid] | 722 nM | > 10000 nM |
| Cc1cnn(C2CCN(c3nc4c([C@@H](C)Nc5ccccc5C(=O)O)cc(C)cn4c(=O)c3C)CC2)c1 [Example 10-16, (R)-2-((1-(3,7-dimethyl-2-(4-(4-methyl-1H-pyrazol-1-yl)piperidin-1-yl)-4-oxo-4H-pyrido[1,2-a]pyrimidin-9-yl)ethyl)amino)benzoic acid] | 37.3 nM | > 10000 nM |
| C=C(C#N)CNc1nc2c([C@@H](C)Nc3ccccc3C(=O)O)cc(C)cn2c(=O)c1C [Example 11-110, (R)-2-((1-(2-((2-cyanoallyl)amino)-3,7-dimethyl-4-oxo-4H-pyrido[1,2-a]pyrimidin-9-yl)ethyl)amino)benzoic acid] | 4880 nM | > 10000 nM |
| Cc1cc([C@@H](C)Nc2ccccc2C(=O)O)c2nc(N[C@@H](C)C3CC3)c(C)c(=O)n2c1 [Example 11-166, 2-(((R)-1-(2-(((S)-1-cyclopropylethyl)amino)-3,7-dimethyl-4-oxo-4H-pyrido[1,2-a]pyrimidin-9-yl)ethyl)amino)benzoic acid] | 364 nM | > 10000 nM |
| Cc1cc([C@@H](C)Nc2ccccc2C(=O)O)c2nc(NCC3(F)CC3)c(C#N)c(=O)n2c1 [Example 11-155, (R)-2-((1-(3-cyano-2-(((1-fluorocyclopropyl)methyl)amino)-7-methyl-4-oxo-4H-pyrido[1,2-a]pyrimidin-9-yl)ethyl)amino)benzoic acid] | 165 nM | > 10000 nM |
| Cc1cc([C@@H](C)Nc2ccccc2C(=O)O)c2nc(N3CC(c4ccccn4)C3)c(C)c(=O)n2c1 [Example 11-16, (R)-2-((1-(3,7-dimethyl-4-oxo-2-(3-(pyridin-2-yl)azetidin-1-yl)-4H-pyrido[1,2-a]pyrimidin-9-yl)ethyl)amino)benzoic acid] | 389 nM | > 10000 nM |

Next, values leading:

| IC50 [1] | IC50 [2] | Structure (SMILES) |
| --- | --- | --- |
| 703 nM | > 10000 nM | Cc1cc([C@@H](C)Nc2ccc(C(F)(F)F)nc2C(=O)O)c2nc(N3Cc4ccccc4C3)c(C)c(=O)n2c1 [Example 11-354, (R)-3-((1-(2-(isoindolin-2-yl)-3,7-dimethyl-4-oxo-4H-pyrido[1,2-a]pyrimidin-9-yl)ethyl)amino)-6-(trifluoromethyl)picolinic acid] |
| 1440 nM | 8970 nM | Cc1cc(C(C)Nc2ccccc2)c2nc(N3Cc4ccccc4C3)c(C#N)c(=O)n2c1 (stereo not shown) [Example 11-302, 2-(isoindolin-2-yl)-7-methyl-4-oxo-9-(1-(phenylamino)ethyl)-4H-pyrido[1,2-a]pyrimidine-3-carbonitrile] |
| 146 nM | > 10000 nM | Cc1cc([C@@H](C)Nc2ccccc2C(=O)O)c2nc(N3CCC(C)CC3)c(C#N)c(=O)n2c1 [Example 11-314, (R)-2-((1-(3-cyano-7-methyl-2-(4-methylpiperidin-1-yl)-4-oxo-4H-pyrido[1,2-a]pyrimidin-9-yl)ethyl)amino)benzoic acid] |
| > 10000 nM | > 10000 nM | CCC(Nc1ccccc1C(=O)O)c1cc(C)cn2c(=O)cc(N3CCCCC3)nc12 (stereo not shown) [Example 11-411, 2-((1-(7-methyl-4-oxo-2-(piperidin-1-yl)-4H-pyrido[1,2-a]pyrimidin-9-yl)propyl)amino)benzoic acid] |
| 1260 nM | 6210 nM | Cc1cc([C@@H](C)Nc2ccc(Cl)nc2C(=O)O)c2nc(N3CCCCC3)c(C)c(=O)n2c1 [Example 11-358, (R)-6-chloro-3-((1-(3,7-dimethyl-4-oxo-2-(piperidin-1-yl)-4H-pyrido[1,2-a]pyrimidin-9-yl)ethyl)amino)picolinic acid] |
| 4320 nM | > 10000 nM | Cc1cc(C(C)Nc2ccccc2C(=O)O)c2nc(N3CCc4cnn(C)c4C3)cc(=O)n2c1 (stereo not shown) [Example 11-382, 2-((1-(7-methyl-2-(1-methyl-1,4,5,7-tetrahydro-6H-pyrazolo[3,4-c]pyridin-6-yl)-4-oxo-4H-pyrido[1,2-a]pyrimidin-9-yl)ethyl)amino)benzoic acid] |

Source: patent publication US20260078120A1, “SUBSTITUTED PYRIDOPYRIMIDINONES” (MIRATI THERAPEUTICS, INC., priority 2022, published 2026)
